Reference: patent publication US7625863B2, “Treatment of patients with dysfunctional cardiac sodium channels” (The MetroHealth System, priority 2006, dated 2009)
Values joined by “and” are separate entries in the source; they are usually repeats but may differ in a detail not shown here. Equal values may be shown once. “Also recorded” adds a separate entry of the source. Where no end group is shown, it is not given here.

Tests used:
[1] = tested on: hNav1.5 protein fragments centered on 558 fused to YFP; experiment: FRET between hNav1.5 protein fragments centered on 558 fused to CFP or YFP; format: cell-based, human; details: coexpressed with homotypic YFP fragment
Source text: (§1) The beam splitter was the Chroma 86002v2bs multiband beam splitter for ECFP and EYFP (Rockingham, Vt.).
(§2) The corrected FRET ratio was defined as FRETc/IDD.

[2] = target: T1, hNav1.5 protein fragments centered on 558 fused to YFP (Homo sapiens, UniProt Q14524); experiment: as above; format: cell-based; details: coexpressed with heterotypic H558-YFPf, internalized compartments
T1 construct: Fragments centered on 558 (40 amino acids) were fused to either CFP or YFP; expressed in transfected cells
Source text: as §1, §2

[3] = tested on: WT-SCN5A+C373Y-SCN5A channels; format: cell-based, human
Protocol: (§3) Expression of hNav1.5 in HEK293 Cells: Transient transfections of SCN5A expressed in GFP-IRES were performed in human embryonic kidney cells (HEK293) with the Polyfect transfection kit (Qiagen, Valencia, Calif.) according to the manufacturer's protocol for 24 hours.
(§4) Electrophysiology: Macroscopic sodium currents from transfected cells were recorded using the whole-cell configuration of the patch-clamp technique as previously described. (Deschenes I, et al., Cardiovasc Res. 2000; 46:55-65). Cells that emitted green fluorescence and expressed INa-like currents were considered to express mutants and/or polymorphisms of hNav1.5. Patch electrodes were made from 8161 Corning glass (Dow-Corning, Midland, Mich.). Low-resistance electrodes (<2 MΩ) were used, and a routine-series resistance compensation of an Axopatch 200A was performed to values >80% to minimize the voltage-clamp errors. Voltage-clamp command pulses were generated by a microcomputer using PCLAMP software version 9.02 (Axon Instruments, Foster City, Calif.). To stabilize the current, experiments were performed 10 minutes after entering whole-cell configuration. Membrane currents were filtered at 5 kHz and digitized with 12-bit resolution. […]
(§5) Voltage dependence of steady-state inactivation was determined by 500-ms prepulses ranging from −140 to −30 mV. […]

[4] = target: T2, H558R-SCN5A+R282H-C373Y-SCN5A channels (Homo sapiens, UniProt Q14524, H558R); experiment: MTSET block of whole-cell sodium current, H558R-SCN5A+R282H-C373Y-SCN5A; format: cell-based; details: 1 μmol/L MTSET, after 10 minutes, 1 μg + 1 μg, HEK293
T2 construct: expressed in transfected cells; host or cells: HEK293
Protocol: as §3, §4, §5

C373Y-SCN5A channels = target: T3, C373Y-SCN5A channels (Homo sapiens, UniProt Q14524, C373Y); format: cell-based
T3 construct: expressed in transfected cells; host or cells: HEK293
Protocol: as §3, §4, §5

YFP-1022 = experiment: FRET folding study of non-mutated channel construct in HEK293 cells; format: cell-based, human; details: non-mutated YFP-1022 co-expressed with peptide
Source text: Image Analysis and Calculation of Fluorescence Resonance Energy Transfer Ratios: Images were acquired with and Olympus IX71 fluorescent microscope that was fitted with a Hamamatsu ORCA-ER charge coupled device (12 bit) and controlled by the SLIDEBOOK software package from Intelligent Imaging Innovations (Denver, Colo.). Filter cube specifications for the fluorescent channels were as follows for excitation and emission, respectively: enhanced cyan fluorescent protein (CFP), 430±25 and 470±30 nm; enhanced yellow fluorescent protein (YFP), 500±20 and 535±30 nm, and fluorescence resonance energy transfer (FRET), 430±25 and 535±30 nm.
Image analysis involved three basic operations: subtraction of background autofluorescence and blurred light, quantification of fluorescence intensity, and calculation of a corrected FRET (FRETc) using the following equation: FRETc=(IDA−aIAA−dIDD)/IDD,
Where IDA is the fluorescence intensity of the cell measured from the FRET filter set and IDD and IAA are the fluorescent intensities of the same cell measured from the CFP (donor) and YFP (acceptor) filter sets, respectively. The cross-talk coefficients, a and d, are considered constant and a property of our microscope's filter sets, with a=0.03 and d=0.63. The corrected FRET ratio (FRETc) includes normalization to IDD to correct for variances in protein expression from cell to cell. […]

WT channels (Nav1.5) = target: T4, WT channels (Nav1.5) (Homo sapiens, UniProt Q14524); experiment: Whole cell patch clamp of sodium currents in HEK293 cells co-expressing WT channels and polymorphic peptide; format: cell-based
T4 construct: expressed in transfected cells; host or cells: HEK293
Source text: Creation of Channel Fragments: Channel fragments were created by amplifying a small piece of either the wild type or the H558R polymorphic channel. These pieces were ligated into either the pcDNA3 vector or the pECFP-N3 vector (BD Biosciences Clonetech). The sequences for the fragments are: Wild Type 20 amino acid-[…] (SEQ ID NO: 10), Polymorphic 40 amino acid-[…] (SEQ ID NO: 4), and polymorphic 20 amino acid-[…] (SEQ ID NO: 3).
Expression of Nav1.5 and Fragments in HEK293 Cells: Transient transfection of Nav1.5 and Nav1.5 fragments into human embryonic kidney (HEK293) cells was accomplished using the Polyfect transfection kit (Qiagen, Valencia, Calif.) according to the manufacturer's protocol for 24 hours. When channels were expressed alone, […] of channel cDNA was used. For co-transfections, 1 μg of channel cDNA and 1 μg of fragment cDNA were combined.
Electrophysiology: Macroscopic sodium currents from transfected cells were recorded using the whole cell configuration of the patch clamp technique as previously described (Deschenes, I., et al., 2000 Cardiovasc. Res. 46: 55-65). Cells that emitted green fluorescence were considered successfully transfected. Patch electrodes were made from 1.5 mm thin walled glass capillaries (World Precision Instruments, Sarasota, Fla.). Low resistance electrodes (<2MΩ) were used, and a routine series resistance compensation of an Axopatch 200A was preformed to values >80% to minimize voltage clamp errors. Voltage clamp command pulses were generated by a microcomputer using PCLAMP software version 9.02 (Axon Instruments, Foster City, Calif.). To allow currents to stabilize, experiments were performed 10 minutes after entering whole cell configuration. Membrane currents were filtered at 5 kHZ and digitized with 12-bit resolution. The internal solution contained (in mmol/L) NaCl 35, CsF 105, EGTA 10, and Cs-HEPES 10 adjusted to pH7.4. […]
Whole cell sodium current densities were measured by dividing the peak current obtained from stepping in 10 mV intervals from −80 to 30 mV from the holding potential of −120 mV by the cell capacitance. Cell capacitance was determined by integrating the area under the capacitive transient of a pulse from −80 mV to −70 mV. […]
Voltage dependence of steady state inactivation was determined by 500 ms prepulses ranging from −140 to −30 mV (FIG. 7B inset). […]
Conductance was calculated from peak current obtained by holding the resting membrane potential at −120 mV and stepping in 10 mV intervals from −80 mV to 20 mV according to the equation: G=I/(Vm−Vrec)
The conductance was also fit to a Boltzmann distribution. Time constant of inactivation was measured by fitting individual current traces from the peak current to the end of the pulse with a single exponential: I(t)=A*exp(−t/τ)

[5] = WT channels treated with polymorphic peptide, HEK293

Molecule: H558-CFPf: hNav1.5 fragment centered on 558 (40 amino acids) with H558, fused to CFP (GSEADFADDENSTAGESESHHTSLLVPWPLRRTSAQGQPS; also: fused to CFP (carrier left off))
- FRETc [1]: 0.01±0.01

Molecule: R558-CFPf: hNav1.5 fragment centered on 558 (40 amino acids) with R558, fused to CFP (GSEADFADDENSTAGESESHRTSLLVPWPLRRTSAQGQPS; also: fused to CFP (carrier left off))
- FRETc [1]: 0.01±0.01
- FRETc [2]: 0.04±0.02

Molecule: C[N+](C)(C)CCSS(C)(=O)=O.[Br-] [MTSET, [2-(trimethylammonium)ethyl]methanethiosulfonate bromide]
- decrease of whole-cell sodium current [3]: 42.6±9.5% and 50%
- reduction of whole-cell sodium current [4]: 48.1±10.0% and 50%
- decrease of peak current density (C373Y-SCN5A channels): does not significantly decrease peak current densities; also recorded: does not block

Molecule: GSEADFADDENSTAGESESHRTSLLVPWPLRRTSAQGQPS [R558-40aa, 40 amino acid fragment of Nav1.5 containing the H558R polymorphism, expressed from cDNA]
- FRETc compared with YFP-1022 alone (YFP-1022): similar
- current density (WT channels (Nav1.5); HEK293 cells, WT channels co-expressed with the 40 amino acid fragment, WT alone −337.7±105.8): −474.1±125.9 pA/pF
- Conductance (V1/2) (WT channels (Nav1.5); [5]): −40.2 ± 3.3 mV
- Steady State Inactivation (V1/2) (WT channels (Nav1.5); [5]): −90.0 ± 1.6 mV
- Time Constant of Inactivation compared to WT (WT channels (Nav1.5); WT channels with peptide, FIG. 7D): behaved similarly to WT

Molecule: NSTAGESESHRTSLLVPWPL [R558-20aa, 20 amino acid fragment of Nav1.5 containing the H558R polymorphism, expressed from cDNA]
- FRETc compared with YFP-1022 alone (YFP-1022): similar
